# Experimental data reported in ChEMBL document CHEMBL3885881, “DrugMatrix”.
# Species on record: Rattus norvegicus
# Assay: DrugMatrix - Regimen: Daily Repeat
# Format: toxicity, organism-based, Sprague-Dawley
# Design: regimen Daily Repeat, gender Male, age 6-8 weeks
# Conditions: in vivo, po, 30 mg/kg, route oral GAVAGE, dose level Low, vehicle .5 % CMC; for ABSOLUTE BASOPHIL / ABSOLUTE EOSINOPHIL / ABSOLUTE LYMPHOCYTE / ABSOLUTE MONOCYTE / ABSOLUTE SEGMENTED NEUTROPHIL / BASOPHIL / EOSINOPHIL / ERYTHROCYTE COUNT / HEMATOCRIT / HEMOGLOBIN / LEUKOCYTE COUNT / LYMPHOCYTE / MEAN CORPUSCULAR HEMOGLOBIN / MEAN CORPUSCULAR HEMOGLOBIN CONCENTRATION / MEAN CORPUSCULAR VOLUME / MONOCYTE / NEUTROPHIL / NUCLEATED RED BLOOD CELLS / PLATELET COUNT: tissue Blood; for ALANINE AMINOTRANSFERASE / ALBUMIN / ALKALINE PHOSPHATASE / ASPARTATE AMINOTRANSFERASE / BLOOD UREA NITROGEN / CARBON DIOXIDE / CHLORIDE / CHOLESTEROL / CREATINE PHOSPHOKINASE / CREATININE / GLUCOSE / LACTATE DEHYDROGENASE / LIPASE / PHOSPHORUS / POTASSIUM / SODIUM / TOTAL BILIRUBIN / TOTAL PROTEIN / URIC ACID: tissue Plasma
structure (smiles),measurement,setting,value
CC(=O)CCCCn1c(=O)c2c(ncn2C)n(C)c1=O [PENTOXIFYLLINE],ABSOLUTE BASOPHIL,"72 h, time 3 day",0 CELLS/uL
same,ABSOLUTE EOSINOPHIL,"72 h, time 3 day",54.67 CELLS/uL
same,ABSOLUTE LYMPHOCYTE,"72 h, time 3 day",16028 CELLS/uL
same,ABSOLUTE MONOCYTE,"72 h, time 3 day",106.67 CELLS/uL
same,ABSOLUTE SEGMENTED NEUTROPHIL,"72 h, time 3 day",1677.33 CELLS/uL
same,BASOPHIL,"72 h, time 3 day",0%
same,EOSINOPHIL,"72 h, time 3 day",0.33%
same,ERYTHROCYTE COUNT,"72 h, time 3 day",4.93 x10E6/uL
same,HEMATOCRIT,"72 h, time 3 day",32.23%
same,HEMOGLOBIN,"72 h, time 3 day",12.6 G/DL
same,LEUKOCYTE COUNT,"72 h, time 3 day",17.87 x10E3/uL
same,LYMPHOCYTE,"72 h, time 3 day",89.67%
same,MEAN CORPUSCULAR HEMOGLOBIN,"72 h, time 3 day",25.6 pg
same,MEAN CORPUSCULAR HEMOGLOBIN CONCENTRATION,"72 h, time 3 day",39.1 G/DL
same,MEAN CORPUSCULAR VOLUME,"72 h, time 3 day",65.47 fL
same,MONOCYTE,"72 h, time 3 day",0.67%
same,NEUTROPHIL,"72 h, time 3 day",9.33%
same,NUCLEATED RED BLOOD CELLS,"72 h, time 3 day",0.33 /100WBC
same,PLATELET COUNT,"72 h, time 3 day",1350 x10E3/uL
same,ALANINE AMINOTRANSFERASE,"72 h, time 3 day",62.33 u/L
same,ALBUMIN,"72 h, time 3 day",4.27 G/DL
same,ALKALINE PHOSPHATASE,"72 h, time 3 day",546.33 u/L
same,ASPARTATE AMINOTRANSFERASE,"72 h, time 3 day",100.33 u/L
same,BLOOD UREA NITROGEN,"72 h, time 3 day",17.33 mg/dL
same,CARBON DIOXIDE,"72 h, time 3 day",24.67 mmol/L
same,CHLORIDE,"72 h, time 3 day",107.67 MEQ/L
same,CHOLESTEROL,"72 h, time 3 day",71 mg/dL
same,CREATINE PHOSPHOKINASE,"72 h, time 3 day",318.67 u/L
same,CREATININE,"72 h, time 3 day",0.21 mg/dL
same,GLUCOSE,"72 h, time 3 day",160.67 mg/dL
same,LACTATE DEHYDROGENASE,"72 h, time 3 day",438.67 u/L
same,LIPASE,"72 h, time 3 day",10 u/L
same,PHOSPHORUS,"72 h, time 3 day",13.7 mg/dL
same,POTASSIUM,"72 h, time 3 day",6.67 MEQ/L
same,SODIUM,"72 h, time 3 day",149.33 MEQ/L
same,TOTAL BILIRUBIN,"72 h, time 3 day",0.2 mg/dL
same,TOTAL PROTEIN,"72 h, time 3 day",5.87 G/DL
same,URIC ACID,"72 h, time 3 day",1.47 mg/dL
same,ABSOLUTE BASOPHIL,"120 h, time 5 day",0 CELLS/uL
same,ABSOLUTE EOSINOPHIL,"120 h, time 5 day",0 CELLS/uL
same,ABSOLUTE LYMPHOCYTE,"120 h, time 5 day",10793.33 CELLS/uL
same,ABSOLUTE MONOCYTE,"120 h, time 5 day",47.67 CELLS/uL
same,ABSOLUTE SEGMENTED NEUTROPHIL,"120 h, time 5 day",492.33 CELLS/uL
same,BASOPHIL,"120 h, time 5 day",0%
same,EOSINOPHIL,"120 h, time 5 day",0%
same,ERYTHROCYTE COUNT,"120 h, time 5 day",5.84 x10E6/uL
same,HEMATOCRIT,"120 h, time 5 day",36.73%
same,HEMOGLOBIN,"120 h, time 5 day",13.57 G/DL
same,LEUKOCYTE COUNT,"120 h, time 5 day",11.33 x10E3/uL
same,LYMPHOCYTE,"120 h, time 5 day",95.33%
same,MEAN CORPUSCULAR HEMOGLOBIN,"120 h, time 5 day",23.23 pg
same,MEAN CORPUSCULAR HEMOGLOBIN CONCENTRATION,"120 h, time 5 day",36.97 G/DL
same,MEAN CORPUSCULAR VOLUME,"120 h, time 5 day",62.93 fL
same,MONOCYTE,"120 h, time 5 day",0.33%
same,NEUTROPHIL,"120 h, time 5 day",4.33%
same,NUCLEATED RED BLOOD CELLS,"120 h, time 5 day",0.33 /100WBC
same,PLATELET COUNT,"120 h, time 5 day",1319.67 x10E3/uL
same,ALANINE AMINOTRANSFERASE,"120 h, time 5 day",45 u/L
same,ALBUMIN,"120 h, time 5 day",4.5 G/DL
same,ALKALINE PHOSPHATASE,"120 h, time 5 day",368 u/L
same,ASPARTATE AMINOTRANSFERASE,"120 h, time 5 day",79.67 u/L
same,BLOOD UREA NITROGEN,"120 h, time 5 day",18.33 mg/dL
same,CARBON DIOXIDE,"120 h, time 5 day",23 mmol/L
same,CHLORIDE,"120 h, time 5 day",105.33 MEQ/L
same,CHOLESTEROL,"120 h, time 5 day",65 mg/dL
same,CREATINE PHOSPHOKINASE,"120 h, time 5 day",458.33 u/L
same,CREATININE,"120 h, time 5 day",0.21 mg/dL
same,GLUCOSE,"120 h, time 5 day",166 mg/dL
same,LACTATE DEHYDROGENASE,"120 h, time 5 day",154.67 u/L
same,LIPASE,"120 h, time 5 day",10.33 u/L
same,PHOSPHORUS,"120 h, time 5 day",13.7 mg/dL
same,POTASSIUM,"120 h, time 5 day",7.08 MEQ/L
same,SODIUM,"120 h, time 5 day",148.67 MEQ/L
same,TOTAL BILIRUBIN,"120 h, time 5 day",0.2 mg/dL
same,TOTAL PROTEIN,"120 h, time 5 day",6.43 G/DL
same,URIC ACID,"120 h, time 5 day",2.37 mg/dL
